Laboratory results taken from ChEMBL document CHEMBL1201862, “PubChem BioAssay data set” (2004).
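Growth conditions: 96-well plates. Treatment: test compound, 48 hours, 5 concentrations. Analysis: linear interpolation between bracketing concentrations; unreached endpoints set to highest concentration. GI50: concentration for 50% inhibition of growth.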 Active and inactive are the calls of the source. Cut-off read from the data, not from the text of the source: active = GI50 up to about 1.1 µM and inactive = higher.

Experiments:
Test in all cases: inhibition of tumour cell growth, NCI panel, 48 h
COLO 205 = test system: COLO 205
U-251 = test system: U-251
DMS-273 = test system: DMS-273
SK-MEL-28 = test system: SK-MEL-28
MOLT-4 = test system: MOLT-4
MDA-N = test system: MDA-N
SK-MEL-2 = test system: SK-MEL-2
DLD-1 = test system: DLD-1
LOX IMVI = test system: LOX IMVI
NCI/ADR-RES = test system: NCI/ADR-RES
MCF7 = test system: MCF7
M14 = test system: M14
HCC 2998 = test system: HCC 2998
SNB-75 = test system: SNB-75
HOP-62 = test system: HOP-62
NCI-H460 = test system: NCI-H460
OVCAR-8 = test system: OVCAR-8
HCT-116 = test system: HCT-116
OVCAR-4 = test system: OVCAR-4
NCI-H23 = test system: NCI-H23

## C/C(=N\N=C(/S)N1CC2CCC(CC2)C1)c1cccc[n+]1[O-]
COLO 205
  GI50: 3.66 µM (inactive)
U-251
  GI50: 6.28 µM (inactive)
DMS-273
  GI50: 2.62 µM (inactive)
SK-MEL-28
  GI50: 5.2 µM (inactive)
MOLT-4
  GI50: 0.373 µM (active)
MDA-N
  GI50: 14.2 µM (inactive)
SK-MEL-2
  GI50: 15.3 µM (inactive)
DLD-1
  GI50: 2.06 µM (inactive)
LOX IMVI
  GI50: 5.02 µM (inactive)
NCI/ADR-RES
  GI50: 3.09 µM (inactive)
MCF7
  GI50: 5.7 µM (inactive)
M14
  GI50: 6.15 µM (inactive)
HCC 2998
  GI50: 10.8 µM (inactive)
SNB-75
  GI50: 11.5 µM (inactive)
HOP-62
  GI50: 12.6 µM (inactive)
NCI-H460
  GI50: 8.09 µM (inactive)
OVCAR-8
  GI50: 6.44 µM (inactive)
HCT-116
  GI50: 3.61 µM (inactive)
OVCAR-4
  GI50: 2.46 µM (inactive)
NCI-H23
  GI50: 16.6 µM (inactive)

## CC(=O)NC(CCCCNCc1ccccc1)C(=O)NCc1ccccc1 (stereo not given)
COLO 205
  GI50: > 100 µM (inactive)
U-251
  GI50: > 100 µM (inactive)
DMS-273
  GI50: > 100 µM (inactive)
SK-MEL-28
  GI50: > 100 µM (inactive)
MOLT-4
  GI50: > 100 µM (inactive)
SK-MEL-2
  GI50: > 100 µM (inactive)
DLD-1
  GI50: > 100 µM (inactive)
LOX IMVI
  GI50: > 100 µM (inactive)
M14
  GI50: > 100 µM (inactive)
HCC 2998
  GI50: > 100 µM (inactive)
SNB-75
  GI50: 30.5 µM (inactive)
HOP-62
  GI50: > 100 µM (inactive)
NCI-H460
  GI50: > 100 µM (inactive)
OVCAR-8
  GI50: > 100 µM (inactive)
HCT-116
  GI50: > 100 µM (inactive)
OVCAR-4
  GI50: > 100 µM (inactive)
NCI-H23
  GI50: > 100 µM (inactive)

## NCc1ccc(O)c(O)c1O
COLO 205
  GI50: 19.2 µM (inactive)
U-251
  GI50: 24.9 µM (inactive)
DMS-273
  GI50: 16.9 µM (inactive)
SK-MEL-28
  GI50: 62.5 µM (inactive)
MOLT-4
  GI50: 28.4 µM (inactive)
MDA-N
  GI50: > 10 µM (inactive)
SK-MEL-2
  GI50: 22.5 µM (inactive)
DLD-1
  GI50: 20.3 µM (inactive)
LOX IMVI
  GI50: 16.8 µM (inactive)
MCF7
  GI50: 16.8 µM (inactive)
M14
  GI50: 14.3 µM (inactive)
HCC 2998
  GI50: > 66.4 µM (inactive)
SNB-75
  GI50: 26.4 µM (inactive)
HOP-62
  GI50: 46.6 µM (inactive)
NCI-H460
  GI50: 18.5 µM (inactive)
OVCAR-8
  GI50: 23.9 µM (inactive)
HCT-116
  GI50: 16.7 µM (inactive)
OVCAR-4
  GI50: 26.1 µM (inactive)
NCI-H23
  GI50: 28.1 µM (inactive)

## COC1=CC(=O)C2C(C1=O)[C@@H]1c3ccccc3OC[C@H]21 (stereo not given in full)
COLO 205
  GI50: > 100 µM (inactive)
U-251
  GI50: > 100 µM (inactive)
DMS-273
  GI50: > 100 µM (inactive)
SK-MEL-28
  GI50: > 100 µM (inactive)
MOLT-4
  GI50: > 100 µM (inactive)
SK-MEL-2
  GI50: > 100 µM (inactive)
DLD-1
  GI50: > 100 µM (inactive)
LOX IMVI
  GI50: > 100 µM (inactive)
M14
  GI50: > 100 µM (inactive)
HCC 2998
  GI50: > 100 µM (inactive)
SNB-75
  GI50: > 100 µM (inactive)
HOP-62
  GI50: > 100 µM (inactive)
NCI-H460
  GI50: > 100 µM (inactive)
OVCAR-8
  GI50: > 100 µM (inactive)
HCT-116
  GI50: > 100 µM (inactive)
OVCAR-4
  GI50: > 100 µM (inactive)
NCI-H23
  GI50: > 100 µM (inactive)

## CC(C)NC(=O)O/N=C1\CCC2[C@@H]3CC=C4C[C@@H](OC(=O)NC(C)C)CC[C@]4(C)C3CC[C@]12C (stereo not given in full)
COLO 205
  GI50: 0.359 µM (active)
U-251
  GI50: 1.38 µM (inactive)
DMS-273
  GI50: 1.31 µM (inactive)
SK-MEL-28
  GI50: 1.59 µM (inactive)
MOLT-4
  GI50: 1.42 µM (inactive)
SK-MEL-2
  GI50: 1.46 µM (inactive)
DLD-1
  GI50: 2.53 µM (inactive)
LOX IMVI
  GI50: 1.03 µM (active)
M14
  GI50: 0.627 µM (active)
HCC 2998
  GI50: 2.14 µM (inactive)
SNB-75
  GI50: 1.87 µM (inactive)
HOP-62
  GI50: 6.53 µM (inactive)
NCI-H460
  GI50: 1.38 µM (inactive)
OVCAR-8
  GI50: 1.75 µM (inactive)
HCT-116
  GI50: 1.43 µM (inactive)
OVCAR-4
  GI50: 1.38 µM (inactive)
NCI-H23
  GI50: 1.18 µM (inactive)
